Test results: patent publication US12398101B2, “Herbicidal 2-azaspiro[3-5]nonane compounds” (SYNGENTA CROP PROTECTION AG, priority 2018, dated 2025)

Columns and labels:
Assay type in all cases: in vivo
Lolium perenne (LOLPE) [1] = experiment: Glasshouse herbicide test, post-emergence application; settings: 250 g/h, evaluated after 13 days
Description: (§1) Seeds of a variety of test species are sown in standard soil in pots (Lolium perenne (LOLPE), Setaria faberi (SETFA), Echinochloa crus-galli (ECHCG), Avena fatua (AVEFA)). After cultivation for one day (pre-emergence) or after 8 days cultivation (post-emergence) under controlled conditions in a glasshouse (at 24/16° C., day/night; 14 hours light; 65% humidity), the plants are sprayed with an aqueous spray solution derived from the formulation of the technical active ingredient in acetone/water (50:50) solution containing 0.5% Tween 20 (polyoxyethelyene sorbitan monolaurate, CAS RN 9005-64-5). Compounds are applied at 250 g/h. The test plants are then grown in a glasshouse under controlled conditions in a glasshouse (at 24/16° C., day/night; 14 hours light; 65% humidity) and watered twice daily. After 13 days for pre and post-emergence, the test is evaluated for the percentage damage caused to the plant. The biological activities are shown in the following table on a five point scale (5=80-100%; 4=60-79%; 3=40-59%; 2=20-39%; 1=0-19%).

Setaria faberi (SETFA) [2] = experiment: as above; settings: 250 g/h, evaluated after 13 days
Description: as §1

Avena fatua (AVEFA) [3] = experiment: as above; settings: 250 g/h, evaluated after 13 days
Description: as §1

[4] = test system: Echinochloa crus-galli (ECHCG); experiment: as above; settings: 250 g/h, evaluated after 13 days
Description: as §1

barley = experiment: Prior art comparison, post-emergence, crop plants
Lolium perenne (LOLPE) [5] = experiment: Glasshouse herbicide test, pre-emergence application; settings: 250 g/h, evaluated after 13 days
Description: as §1

Setaria faberi (SETFA) [6] = experiment: as above; settings: 250 g/h, evaluated after 13 days
Description: as §1

Avena fatua (AVEFA) [7] = experiment: as above; settings: 250 g/h, evaluated after 13 days
Description: as §1

[8] = test system: Echinochloa crus-galli (ECHCG); experiment: as above; settings: 250 g/h, evaluated after 13 days
Description: as §1

wheat = experiment: Prior art comparison, post-emergence, crop plants; settings: for Wheat (percentage damage): post-emergence
[9] = test system: Panicum miliaceum (PANMI); experiment: Prior art comparison, post-emergence, representative weed; settings: for PANMI (percentage damage): post-emergence

Structure (SMILES) | percentage damage caused to the plant, five point scale, LOLPE (Lolium perenne (LOLPE) [1]) | percentage damage caused to the plant, five point scale, SETFA (Setaria faberi (SETFA) [2]) | percentage damage caused to the plant, five point scale, AVEFA (Avena fatua (AVEFA) [3]) | percentage damage caused to the plant, five point scale, ECHCG [4] | Barley (percentage damage) (barley; Rate 60) | Barley (percentage damage) (barley; Rate 125) | percentage damage caused to the plant, five point scale, LOLPE (Lolium perenne (LOLPE) [5]) | percentage damage caused to the plant, five point scale, SETFA (Setaria faberi (SETFA) [6]) | percentage damage caused to the plant, five point scale, AVEFA (Avena fatua (AVEFA) [7]) | percentage damage caused to the plant, five point scale, ECHCG [8] | Wheat (percentage damage) (wheat; Rate 60) | Wheat (percentage damage) (wheat; Rate 60 + CQC (safener cloquintocet-mexyl at 50 g/ha)) | Wheat (percentage damage) (wheat; Rate 125) | crop safety vis-à-vis prior art compound C1 (wheat; wheat and barley, summary of Table B3) | PANMI (percentage damage) ([9]; Rate 60) | PANMI (percentage damage) ([9]; Rate 125) | overall weed control ([9]; summary of Table B3)
CC#Cc1cc(C)c(C2C(=O)CC3(CC2=O)CN(C(C)=O)C3)c(C)c1 [Compound 1.001, 2-acetyl-7-(2,6-dimethyl-4-prop-1-ynyl-phenyl)-2-azaspiro[3.5]nonane-6,8-dione] | 5 (5=80-100%) | 5 (5=80-100%) | 5 (5=80-100%) | 5 (5=80-100%) | 0 | 0 | 5 (5=80-100%) | 5 (5=80-100%) | 5 (5=80-100%) | 2 (2=20-39%) | 0 | 0 | 0 | significantly improved crop safety | 100 | 100 | good overall weed control
CC#Cc1cc(Cl)c(C2C(=O)CC3(CC2=O)CN(C(=O)C(C)(C)C)C3)c(OC)c1 [Compound 1.202] | 5 (5=80-100%) | 5 (5=80-100%) | 5 (5=80-100%) | 5 (5=80-100%) | – | – | 5 (5=80-100%) | 5 (5=80-100%) | 5 (5=80-100%) | 5 (5=80-100%) | – | – | – | – | – | – | –
COc1cc(-c2ccc(F)cc2)cc(C)c1C1C(=O)CC2(CC1=O)CN(C(C)=O)C2 [Compound 1.203] | 5 (5=80-100%) | 5 (5=80-100%) | 5 (5=80-100%) | 5 (5=80-100%) | – | – | 4 (4=60-79%) | 5 (5=80-100%) | 5 (5=80-100%) | 5 (5=80-100%) | – | – | – | – | – | – | –
CC#Cc1cc(C)c(C2=C(OC(=O)OC)CC3(CC2=O)CN(C(C)=O)C3)c(C)c1 [Compound 2.001, 2-acetyl-7-(2,6-dimethyl-4-prop-1-ynyl-phenyl)-6-oxo-2-azaspiro[3.5]non-7-en-8-yl] methyl carbonate] | 5 (5=80-100%) | 5 (5=80-100%) | 5 (5=80-100%) | 5 (5=80-100%) | – | – | 5 (5=80-100%) | 5 (5=80-100%) | 5 (5=80-100%) | 5 (5=80-100%) | – | – | – | – | – | – | –
